Series [1] concerns Plasmodium falciparum DD2. Put plainly: Parasite lactate dehydrogenase (pLDH) assay over 72 h, CQ-resistant strain. The format is cell-based. The following applies: for Resistance index: IC50 (resistant strain)/IC50 (sensitive strain), DD2/NF54; for IC50: Plasmodium falciparum, CQ-resistant DD2, pLDH 72 h, n = 3, read-out: Plasmodium falciparum IC50 DD2. The method, then: The assay was performed in quadruplicate. The data were analyzed by nonlinear regression analysis using the GraphPad PRISM version 5.00 program to determine the IC50 of each compound.

The nature of series [2]: Kinetic solubility in PBS. Type of series: physicochemical. The following applies: phosphate buffer saline (PBS), aqueous buffer, kinetic from dmso stock. How it is done: . […] The aqueous mobile phase was water with 0.1% formic acid and the organic mobile phase was acetonitrile with 0.1% formic acid. The gradient method has a flow rate of 0.8 mL/min, with a total run time of 2.5 min starting at 5% organic and increasing to 95% at 1.4 min, holding for 40 s before returning to 5% to re-equilibrate the column. • ii. Lipophilicity. Stock solutions (10 mM) of compounds were diluted to 100 μM in 96-well deep-well plate containing 300 µL of 1-octanol and 300 µL of phosphate buffer at pH 7.4. The plate was agitated on an orbital shaker at 750 rpm for 2 h. The organic and buffer layers of each well were transferred separately to a new analysis plate. The samples were analysed with the HPLC diode array detection as described for kinetic solubility. Samples from both layers were analysed to determine LogD7.4 values. • iii. Passive permeability. A parallel artificial membrane permeation assay (PAMPA) was used to assess the passive permeability of compounds with a 96-well MultiScreen filter plate ([…] pore size, Millipore). The filter plate was precoated with 5% hexadecane in hexane. Stock solutions of compounds were diluted to 1 mM in a donor buffer (pH 6.5). Lucifer yellow was added to the apical wells of the precoated MultiScreen plate containing compound donor solution. The donor buffer solutions were spiked with each test compound (1 mM). The acceptor-buffer solution was prepared by adding 10 μL DMSO to 990 μL acceptor buffer (pH 7.4) and 250 μL were added to the basolateral (acceptor) wells. The donor plate was carefully inserted into the acceptor plate and incubated at room temperature for 4 h. After the incubation period, 50 μL of samples from the acceptor plate were transferred to a round bottom 96-well plate, together with 30 μL of donor buffer for matrix matching. Theoretical equilibrium samples for each test compound were prepared by adding 150 μL of donor solutions to 250 μL acceptor solutions and left at room temperature. These theoretical equilibrium samples represent complete transfer of the compound into the donor well. For the theoretical equilibrium samples, 80 μL were added to the analysis plate. Lastly, 160 μL of the internal standard carbamazepine (0.1 μM) was added to all acceptor and equilibrium samples. A portion of the sample containing Lucifer yellow was analyzed on a BioRad iMarkTM Microplate Absorbance Reader (BioRad, Hercules, CA, United States; […]. Samples were analysed using reverse phase Gemini NX-C18 column (5 μm, 2.1 mm × 50 mm) with a Shimadzu HPLC coupled with an AB Sciex 3200 Q TRAP MS). […]. Plasma stability. Stock solutions of compounds in DMSO (10 mM) were used to spike pooled human plasma. 90 μL of each sample was transferred in duplicate to 6 different wells of a 96-deep well plate. An aliquot of each sample was immediately quenched with ice cold acetonitrile containing the internal standard carbamazepine (0.1 µM), after which the plate was incubated in a water bath (37°C for […]). Aliquots of samples were removed at 5, 15, 40, 60 and 180 min and quenched with ice cold acetonitrile. After samples of the final time point were precipitated, the supernatant was transferred to a round bottom 96-well plate for analysis by LC-MS/MS using a reverse phase Gemini NX-C18 column (5 μm, 2.1 mm × 50 mm) with a Shimadzu HPLC coupled with an AB Sciex 3200 Q TRAP MS) operated at unit resolution in the multiple reaction monitoring (MRM) mode. The aqueous phase consisted of water with 0.1% formic acid and the organic mobile phase consisted of methanol and acetonitrile (1:1, (v/v)) with 0.1% formic acid. […]. The peak area ratios were used to calculate the amount of parent compound remaining and t1/2 in plasma, using the following equations.

A short description of series [3]: Plasma stability in pooled human plasma. The format is in vitro ADME. The following applies: for half-life: 37°C. The method, then:
. […] The aqueous mobile phase was water with 0.1% formic acid and the organic mobile phase was acetonitrile with 0.1% formic acid. The gradient method has a flow rate of 0.8 mL/min, with a total run time of 2.5 min starting at 5% organic and increasing to 95% at 1.4 min, holding for 40 s before returning to 5% to re-equilibrate the column. • ii. Lipophilicity. Stock solutions (10 mM) of compounds were diluted to 100 μM in 96-well deep-well plate containing 300 µL of 1-octanol and 300 µL of phosphate buffer at pH 7.4. The plate was agitated on an orbital shaker at 750 rpm for 2 h. The organic and buffer layers of each well were transferred separately to a new analysis plate. The samples were analysed with the HPLC diode array detection as described for kinetic solubility. Samples from both layers were analysed to determine LogD7.4 values. • iii. Passive permeability. A parallel artificial membrane permeation assay (PAMPA) was used to assess the passive permeability of compounds with a 96-well MultiScreen filter plate ([…] pore size, Millipore). The filter plate was precoated with 5% hexadecane in hexane. Stock solutions of compounds were diluted to 1 mM in a donor buffer (pH 6.5). Lucifer yellow was added to the apical wells of the precoated MultiScreen plate containing compound donor solution. The donor buffer solutions were spiked with each test compound (1 mM). The acceptor-buffer solution was prepared by adding 10 μL DMSO to 990 μL acceptor buffer (pH 7.4) and 250 μL were added to the basolateral (acceptor) wells. The donor plate was carefully inserted into the acceptor plate and incubated at room temperature for 4 h. After the incubation period, 50 μL of samples from the acceptor plate were transferred to a round bottom 96-well plate, together with 30 μL of donor buffer for matrix matching. Theoretical equilibrium samples for each test compound were prepared by adding 150 μL of donor solutions to 250 μL acceptor solutions and left at room temperature. These theoretical equilibrium samples represent complete transfer of the compound into the donor well. For the theoretical equilibrium samples, 80 μL were added to the analysis plate. Lastly, 160 μL of the internal standard carbamazepine (0.1 μM) was added to all acceptor and equilibrium samples. A portion of the sample containing Lucifer yellow was analyzed on a BioRad iMarkTM Microplate Absorbance Reader (BioRad, Hercules, CA, United States; […]. Samples were analysed using reverse phase Gemini NX-C18 column (5 μm, 2.1 mm × 50 mm) with a Shimadzu HPLC coupled with an AB Sciex 3200 Q TRAP MS). […]. Plasma stability. Stock solutions of compounds in DMSO (10 mM) were used to spike pooled human plasma. […]
. Plasma protein binding was determined in pooled human plasma using an ultracentrifugation method. […]

Series [4] is described as follows: Metabolic stability in mouse liver microsomes. The format is in vitro ADME. How it is done: (§1) Eq. 4 Predicted t1/2 t1/2=−0.693/λ (4) Where λ is the slope of the Ln % parent remaining vs. time curve. • v. Plasma protein binding. Plasma protein binding was determined in pooled human plasma using an ultracentrifugation method. Stock solutions of test compounds (10 mM) were diluted in phosphate buffer and spiked into plasma in deep well 96-well plates (10 µM). An aliquot of each compound was immediately precipitated with ice cold acetonitrile containing the internal standard carbamazepine (0.1 μM). These served as total concentration samples. After incubation in a water bath at 37°C for 1 h, the samples were transferred to ultracentrifuge tubes in duplicate and centrifuged for 4 h at 37°C and 30,000 g (Optima L-80XP, Beckman). Following centrifugation, the supernatant was transferred to the plate containing the total concentration samples and precipitated with ice cold acetonitrile containing the internal standard. Analyte concentrations of all compounds were determined via LC-MS/MS (reverse phase Gemini NX-C18 column and Shimadzu HPLC coupled with an AB Sciex 3200 Q TRAP MS) as described above. • vi. Metabolic stability. A 5-point metabolic stability assay in human and mouse liver microsomes were performed in duplicate in 96-well plates. […] The cofactor NADPH was added, and the reactions were subsequently stopped at time points 5, 10, 30 and 60 min by removal of an aliquot and quenching with ice cold acetonitrile containing the internal standard. The supernatant of all samples was analysed via LC-MS/MS analysis (reverse phase Gemini NX-C18 column and Shimadzu HPLC and AB Sciex 3200 Q TRAP MS) as described above.
(Liver microsomes are a subcellular fraction often used to study metabolism.)

A short description of series [5]: Metabolic stability in human liver microsomes. The format is in vitro ADME. How it is done:
as §1

The nature of series [6]: Plasma protein binding, ultracentrifugation. Type of series: in vitro ADME. The following applies: pooled human plasma.
Setting [7] is: PBS pH 2, read-out: Predicted solubility pH 2.
The mark [8] stands for this setting: PBS pH 6.5, read-out: Predicted solubility pH 6.5.
Setting [9] is: PBS pH 7.4, read-out: Predicted solubility pH 7.4.

Results on two molecules are retold here after article PMC10800708, “Efficacies and ADME properties of redox active methylene blue and phenoxazine analogues for use in new antimalarial triple drug combinations with amino-artemisinins” (Frontiers in Pharmacology, 2024).

Structures are written as SMILES. Where two headings read alike, the source gives them in different places.

With `CCN(CC)c1ccc2nc3ccc(=[N+](CC)CC)cc-3sc2c1` [AD01], the Resistance index in series [1] turned out to be 0.5. In series [1], the IC50 (in general, the concentration that gives 50% inhibition) came out at 0.0119 ± 0.0028 µM. The solubility at 2 h in series [2] (setting [7]), in series [2] (setting [8]) and in series [2] (setting [9]) was more than 150 µM each time. The half-life (as a rule, the time in which the quantity being followed falls by half) in series [3] amounted to 1.42 h. Further, the “Parent remaining in plasma after 3 h” value in series [3] (3 h) amounted to 21%. The CLint scaled (in general, a measure of how fast metabolising enzymes remove a compound, apart from limits set by blood flow) was determined as 4.84 L/h/kg in series [4] and 0.972 L/h/kg in series [5].
For the molecule `CCN(CC)c1ccc2nc3c4ccccc4/c(=N\c4ccccn4)cc-3oc2c1` [PhX6], the Resistance index in series [1] was found to be 0.4. Further, in series [1], the IC50 was 0.0162 ± 0.0024 µM. The solubility (in general, the concentration that dissolves in the medium under given conditions) at 2 h in series [2] (setting [7]) is more than 150 µM; in series [2] (setting [8]) it was less than 5 µM; in series [2] (setting [9]) it was less than 5 µM. This molecule came in with a half-life in series [3] of more than 2.5 h. For the same molecule, in series [6], the fraction unbound – broadly, the share of the substance not bound to proteins or other matrix – at 1 h, 10 µM turned out to be 0.1. Besides, the results for the CLint scaled in series [4] and in series [5] were 5.29 L/h/kg and 1.21 L/h/kg, respectively.
